According to patent US20230234967A1, “Fused Azole Heterocycles as AHR Antagonists” (Senda Biosciences, Inc., priority 2021, published 2023):

Assays:
Assay type in all cases: in vitro ADME
[1] = Hepatocyte Stability Assay, human hepatocytes; settings: cryopreserved human hepatocytes, read-out: Human hepatocyte clearance
Description: (§1) Example 32: Hepatocyte Stability Assay
(§2) Preparation of working solutions: 10 mM stock solutions of test compound and positive control were prepared in DMSO. In separate conical tubes, the 10 mM solution of test compound and the positive control were diluted to 100 μM by combining 198 μL of 50% acetonitrile/50% water and 2 μL of 10 mM stock.
Preparation of Hepatocytes: Incubation medium (William's E Medium supplemented with GlutaMAX) and hepatocyte thawing medium were placed in a 37° C. water bath and allowed warming for at least 15 minutes prior to use. A vial of cryopreserved hepatocytes was transferred from storage, ensuring that vials remained at cryogenic temperatures until thawing process ensued. Cells were thawed by placing the vial in a 37° C. water bath and gently shaking the vials for 2 minutes. After thawing was completed, vial was sprayed with 70% ethanol and transferred to a biosafety cabinet. Wide-bore pipette tip were used to transfer hepatocytes into 50 mL conical tube containing thawing medium. The 50 mL conical tube were placed into a centrifuge and spun at 100 g for 10 minutes. Upon completion of spin, thawing medium was aspirated and resuspended hepatocytes in enough incubation medium to yield ˜1.5×10^6 cells/mL. Using an AO/PI Staining, cells were counted and the viable cell density was determined. Cells with poor viability (<75% viability) were determined to be not acceptable for use. Cells were diluted with incubation medium to a working cell density of 0.5×10^6 viable cells/mL.
Procedure for Stability Determination: 198 μL of hepatocytes were pipetted into each wells of a 96-well non-coated plate. The plate was placed in the incubator to allow the hepatocytes to warm for 10 minutes. 2 μL of the 100 μM test compound or positive control solutions were pipetted into respective wells of the 96-well non-coated plate to start the reaction. The plate was returned to the incubator for the designed time points. Well contents was transferred in 25 μL aliquots at time points of 0, 15, 30, 60, 90 and 120 minutes. The aliquots were then mixed with 6 volumes (150 μL) of acetonitrile containing internal standard, IS (100 nM alprazolam, 200 nM caffeine and 100 nM tolbutamide) to terminate the reaction. The mixture was vortex for 5 minutes. Samples were centrifuged for 45 minutes at 3,220 g. An aliquot of 100 μL of the supernatant was diluted by 100 μL ultra-pure water, and the mixture was used for LC/MS/MS analysis. All incubations were performed in duplicate.
(§3) Data Analysis: All calculations were carried out using Microsoft Excel. Peak areas were determined from extracted ion chromatograms. In vitro half-life (t1/2) of parent compound was determined by regression analysis of the percent parent disappearance vs. time curve.
The in vitro half-life (in vitro t1/2) was determined from the slope value:
Conversion of the in vitro t1/2 (in min) into the in vitro intrinsic clearance (in vitro CLint, in μL/min/1×10^6 cells) was done using the following equation (mean of duplicate determinations): • in vitro CLint=kV/N • V=incubation volume (0.2 mL); • N=number of hepatocytes per well (0.1×10^6 cells).
“+++” indicates a CLint value less than 20 mL/min/Kg, “++” indicates a CLint between 20 and 50 mL/min/Kg, and “+” indicates an CLint above 50 mL/min/Kg.

[2] = Hepatocyte Stability Assay, mouse hepatocytes; settings: cryopreserved mouse hepatocytes, read-out: Mouse hepatocyte clearance
Description: as §1, §2
(§4) Preparation of Hepatocytes: Incubation medium (William's E Medium supplemented with GlutaMAX) and hepatocyte thawing medium were placed in a 37° C. water bath and allowed warming for at least 15 minutes prior to use. A vial of cryopreserved hepatocytes was transferred from storage, ensuring that vials remained at cryogenic temperatures until thawing process ensued. Cells were thawed by placing the vial in a 37° C. water bath and gently shaking the vials for 2 minutes. […] Using an AO/PI Staining, cells were counted and the viable cell density was determined. Cells with poor viability (<75% viability) were determined to be not acceptable for use. […]
as §3
(§5) The in vitro half-life (in vitro t1/2) was determined from the slope value: […]

[3] = Hepatocyte Stability Assay, rat hepatocytes; settings: cryopreserved rat hepatocytes, read-out: Rat hepatocyte clearance
Description: as §1, §2, §4, §3, §5

| Structure (SMILES) | CLint scaled at 1 µM [1] | CLint scaled at 1 µM [2] | CLint scaled at 1 µM [3] |
| --- | --- | --- | --- |
| Cc1ccccc1-c1ccc2nc(NC(=O)c3ccccn3)sc2n1 [Product 8, N-(5-(o-tolyl)thiazolo[5,4-b]pyridin-2-yl)picolinamide] | 20 to 50 mL/min/kg | > 50 mL/min/kg |  |
| COc1ccccc1-c1ccc2nc(NC(=O)c3ccccn3)sc2n1 [Product 12, N-(5-(2-methoxyphenyl)thiazolo[5,4-b]pyridin-2-yl)picolinamide] | 20 to 50 mL/min/kg |  |  |
| Cc1ccccc1-c1ccc2nc(NC(=O)c3ccnn3C)sc2n1 [Product 15, 1-Methyl-N-(5-(o-tolyl)thiazolo[5,4-b]pyridin-2-yl)-1H-pyrazole-5-carboxamide] | < 20 mL/min/kg |  | > 50 mL/min/kg |
| CN(C)c1ccccc1-c1ccc2nc(NC(=O)c3ccnn3C)sc2n1 [Product 18, N-(5-(2-(dimethylamino)phenyl)thiazolo[5,4-b]pyridin-2-yl)-1-methyl-1H-pyrazole-5-carboxamide] | 20 to 50 mL/min/kg |  |  |
| COc1ccccc1-c1ccc2nc(NC(=O)c3ccnn3C)sc2n1 [Product 25, N-(5-(2-methoxyphenyl)thiazolo[5,4-b]pyridin-2-yl)-1-methyl-1H-pyrazole-5-carboxamide] | < 20 mL/min/kg | > 50 mL/min/kg | > 50 mL/min/kg |
| Cc1ccccc1-c1ccc2nc(NC(=O)N3CCOCC3)sc2n1 [Product 39, N-(5-(o-tolyl)thiazolo[5,4-b]pyridin-2-yl)morpholine-4-carboxamide] | < 20 mL/min/kg |  |  |
| Cn1ncnc1C(=O)Nc1cnc2cc(-c3cc(F)ccc3C(F)F)[nH]c2c1 [Product 47] | < 20 mL/min/kg |  |  |
